Measurements as given in the supplement of paper PMC10307832.

How the values were obtained:
Assay in all cases: relative viability (nuclei count vs DMSO), 5 days (fraction); higher = more cells survive
[1] = compound: OCc1c[nH]c2ccccc12 [Indole-3-carbinol] + CC(=O)c1c(C)c2cnc(Nc3ccc(N4CCNCC4)cn3)nc2n(C2CCCC2)c1=O [Palbociclib] (partner 0.5 µM)
How it was run: (§1)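 The day after seeding in 1536-well plates, lung cancer cell lines were treated by pin tool with a single drug, or with a fixed anchor-drug dose together with five library-drug doses (not always all listed) in √10 steps. After 5 days, a combined fix-and-stain solution (final 0.05% Triton X-100, 1% formaldehyde, 1 ug/ml Hoechst) was added. Nuclei counted on 4× images gave relative viability as treated counts over vehicle counts, reported as the median of duplicate plates.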

[2] = compound: OCc1c[nH]c2ccccc12 [Indole-3-carbinol] + CC(C)C[C@H](NC(=O)[C@H](Cc1ccccc1)NC(=O)c1cnccn1)B(O)O [Bortezomib] (partner 0.002 µM)
How it was run: as §1

[3] = compound: OCc1c[nH]c2ccccc12 [Indole-3-carbinol] + COc1cc2c(Oc3ccc(NC(=O)C4(C(=O)Nc5ccc(F)cc5)CC4)cc3F)ccnc2cc1OCCCN1CCOCC1 [Foretinib] (partner 0.25 µM)
How it was run: as §1

[4] = compound: OCc1c[nH]c2ccccc12 [Indole-3-carbinol] + Nc1nc2[nH]cc(CCc3ccc(C(=O)N[C@@H](CCC(=O)O)C(=O)O)cc3)c2c(=O)[nH]1 [Pemetrexed] (partner 0.2 µM)
How it was run: as §1

[5] = compound: OCc1c[nH]c2ccccc12 [Indole-3-carbinol] + Nc1ncn([C@H]2C[C@H](O)[C@@H](CO)O2)c(=O)n1 [Decitabine] (partner 2 µM)
How it was run: as §1

| Cell Line | relative viability ([1]; first compound 0.253 µM) | relative viability ([1]; first compound 0.8 µM) | relative viability ([1]; first compound 2.53 µM) | relative viability ([1]; first compound 8 µM) | relative viability ([2]; first compound 0.253 µM) | relative viability ([2]; first compound 0.8 µM) | relative viability ([2]; first compound 2.53 µM) | relative viability ([2]; first compound 8 µM) | relative viability ([3]; first compound 0.253 µM) | relative viability ([3]; first compound 0.8 µM) | relative viability ([3]; first compound 2.53 µM) | relative viability ([3]; first compound 8 µM) | relative viability ([4]; first compound 0.253 µM) | relative viability ([4]; first compound 0.8 µM) | relative viability ([4]; first compound 2.53 µM) | relative viability ([4]; first compound 8 µM) | relative viability ([5]; first compound 0.253 µM) | relative viability ([5]; first compound 0.8 µM) | relative viability ([5]; first compound 2.53 µM) | relative viability ([5]; first compound 8 µM) |
| --- | --- | --- | --- | --- | --- | --- | --- | --- | --- | --- | --- | --- | --- | --- | --- | --- | --- | --- | --- | --- |
| HCC-366 | 0.419 | 0.384 | 0.455 | 0.356 | 0.986 | 0.858 | 1.05 | 1.09 | 0.959 | 0.861 | 0.902 | 0.926 | 0.198 | 0.202 | 0.179 | 0.169 | 0.384 | 0.335 | 0.369 | 0.335 |
| HCC-827 | 0.495 | 0.292 | 0.479 | 0.471 | 0.873 | 0.986 | 1.03 | 0.986 | 1.07 | 1.02 | 1.03 | 1.1 | 0.261 | 0.258 | 0.278 | 0.255 | 0.379 | 0.337 | 0.312 | 0.34 |
| HOP-62 | 0.444 | 0.457 | 0.451 | 0.426 | 0.989 | 0.711 | 0.82 | 0.521 | 1.12 | 1.23 | 1.16 | 1.05 | 0.284 | 0.296 | 0.388 | 0.376 | 0.187 | 0.218 | 0.228 | 0.196 |
| IA-LM | – | – | – | – | 0.842 | 0.898 | 0.82 | 0.789 | 1.07 | 1.37 | 1.11 | 1.09 | – | – | – | – | – | – | – | – |
| LC-2-ad | 0.533 | 0.534 | 0.513 | 0.455 | 1.13 | 1.11 | 0.994 | 0.974 | 0.921 | 0.852 | 1.05 | 0.889 | 0.282 | 0.276 | 0.246 | 0.263 | 0.715 | 0.883 | 0.71 | 0.774 |
| LK-2 | 0.674 | 0.489 | 1.05 | 0.703 | – | – | – | – | 1.39 | 1.2 | 1.42 | 1.07 | 0.273 | 0.216 | 0.313 | 0.358 | 0.308 | 0.231 | 0.374 | 0.327 |
| NCI-H358 | 0.145 | 0.125 | 0.136 | 0.12 | – | – | – | – | 0.805 | 0.69 | 0.73 | 0.73 | 0.17 | 0.161 | 0.182 | 0.185 | 0.204 | 0.207 | 0.304 | 0.207 |
| NCI-H522 | 0.87 | 1.02 | 1.31 | 1.15 | – | – | – | – | – | – | – | – | 0.979 | 1.12 | 1.08 | 1.04 | 0.698 | 0.699 | 0.803 | 0.689 |
| NCI-H596 | – | – | – | – | 0.996 | 0.773 | 0.987 | 1.01 | 0.921 | 0.885 | 1.05 | 0.791 | 0.474 | 0.508 | 0.517 | 0.486 | 1.04 | 0.971 | 1.06 | 0.959 |
| NCI-H727 | 0.634 | 0.669 | 0.699 | 0.648 | 0.872 | 0.842 | 0.897 | 0.828 | 0.744 | 0.891 | 1.05 | 0.886 | – | – | – | – | 0.997 | 0.782 | 0.884 | 0.825 |
| NCI-H1395 | 0.625 | 0.589 | 0.734 | 0.531 | – | – | – | – | 0.818 | 1.1 | 0.97 | 0.914 | 0.848 | 0.868 | 0.78 | 0.845 | 0.723 | 0.771 | 0.695 | 0.685 |
| NCI-H1563 | – | – | – | – | 0.951 | 0.7 | 0.996 | 0.774 | 0.865 | 0.799 | 0.914 | 0.859 | 0.767 | 0.645 | 0.809 | 0.802 | – | – | – | – |
| NCI-H1703 | – | – | – | – | 0.274 | 0.389 | 0.358 | 0.453 | 0.342 | 0.376 | 0.309 | 0.326 | – | – | – | – | – | – | – | – |
| NCI-H1792 | 0.74 | 0.634 | 0.675 | 0.697 | 0.965 | 0.89 | 1.03 | 0.934 | – | – | – | – | 0.984 | 0.993 | 0.704 | 0.858 | 0.569 | 0.603 | 0.506 | 0.489 |
| NCI-H1793 | 0.346 | 0.281 | 0.298 | 0.315 | – | – | – | – | 0.728 | 0.78 | 0.685 | 0.656 | 0.934 | 0.773 | 1.03 | 0.761 | 0.502 | 0.465 | 0.472 | 0.479 |
| NCI-H1944 | 0.338 | 0.279 | 0.304 | 0.311 | – | – | – | – | 0.876 | 0.775 | 0.846 | 0.77 | 0.663 | 0.539 | 0.649 | 0.641 | 0.46 | 0.456 | 0.441 | 0.404 |
| NCI-H2170 | 0.384 | 0.375 | 0.41 | 0.42 | – | – | – | – | 1.04 | 0.861 | 0.815 | 0.943 | 0.286 | 0.24 | 0.292 | 0.273 | 0.505 | 0.494 | 0.446 | 0.473 |
| NCI-H2228 | 0.75 | 0.771 | 0.645 | 0.78 | 1.17 | 0.876 | 0.914 | 0.911 | 0.945 | 0.897 | 0.984 | 0.935 | 0.368 | 0.335 | 0.334 | 0.344 | – | – | – | – |
| SK-MES-1 | 0.292 | 0.299 | 0.318 | 0.313 | – | – | – | – | 1.03 | 0.922 | 0.946 | 0.882 | 0.926 | 1.01 | 0.927 | 0.939 | 0.341 | 0.415 | 0.413 | 0.348 |
| SW 900 | 0.557 | 0.501 | 0.589 | 0.527 | – | – | – | – | 0.796 | 1.05 | 0.877 | 0.819 | 0.49 | 0.443 | 0.519 | 0.495 | 0.418 | 0.376 | 0.483 | 0.405 |
